Values quoted from earlier work in patent US20120059013A1, “METHOD OF TREATING EARLY MORNING AKINESIA IN SUBJECTS HAVING PARKINSON'S DISEASE” (priority 2010, published 2012).

Key:
[1] = humans
[2] = test system: hepatic cytochrome P450 enzymes; settings: humans

Half-life [1]: long half-life | Oral bioavailability [1]: high oral bioavailablity
Compound: CCCN[C@H]1CCc2nc(N)sc2C1 [Pramipexole, (S)-2-amino-4,5,6,7,-tetrahydro-6-(propylamino)benzothiazole]
Interaction with hepatic cytochrome P450 enzymes [2]: no significant interaction with hepatic cytochrome P450 enzymes
